Our source for the IC50 values is US20210269434A1, “TRICYCLIC COMPOUNDS AS INHIBITORS OF KRAS” (Incyte Corporation, priority 2020, published 2021).

The target in one experiment is KRAS G12C (Homo sapiens, UniProt P01116, G12C). Briefly: GDP-GTP exchange assay (KRAS_G12C exchange). It counts as biochemical. Conditions: bodipy-GDP loaded KRAS G12C 2.5 nM, SOS1 150 nM, GppNHp; 2 hours pre-incubation, 2 hours reaction; read-out: G12C_exchange. The procedure, abridged:
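Fluorescence exchange of bodipy-GDP for GppNHp, SOS1-driven, read at 485/520 nm; IC50 from four-parameter variable-slope fit. Both mutants used 2.5 nM final labelled protein and a 2 h compound pre-incubation. G12C reaction had 500 uM GppNHp and 150 nM SOS1 for 2 h; G12D ran 4 h.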

The test system of experiment [1] is MIA PaCa-2 (KRAS G12C) cells. Briefly: Cellular pERK HTRF assay (KRAS_G12C pERK). It is filed as cell-based, human. Conditions: Homo sapiens, MIA PaCa-2, 4 hours incubation, read-out: G12C_pERK. An outline of the steps:
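MIA PaCa-2 cells plated overnight, then exposed to compound for 4 h at 37 °C (G12C compounds). Phospho-ERK1/2 measured in lysates by HTRF (665/620 nm) after overnight antibody incubation; IC50 from percent inhibition versus log concentration.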

Bounds are passed on as bounds.

Sequence of KRAS G12C (P01116 1-188 isoform P01116-2 G12C): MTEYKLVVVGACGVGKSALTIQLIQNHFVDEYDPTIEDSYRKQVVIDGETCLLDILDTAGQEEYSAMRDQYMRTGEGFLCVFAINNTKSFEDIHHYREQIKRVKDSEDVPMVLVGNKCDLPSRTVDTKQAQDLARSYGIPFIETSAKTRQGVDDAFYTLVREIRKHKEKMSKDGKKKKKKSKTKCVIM

Turning to `C=CC(=O)N1CC[C@H](n2nnc3c(N4CC(C)(N(C)C)C4)nc4c(F)c(-c5c(C)c(F)cc6[nH]ncc56)c(C)cc4c32)C[C@H]1CC#N` [Example 202a, 2-((2S,4S)-1-acryloyl-4-(4-(3-(dimethylamino)-3-methylazetidin-1-yl)-6-fluoro-7-(6-fluoro-5-methyl-1H-indazol-4-yl)-8-methyl-1H-[1,2,3]triazolo[4,5-c]quinolin-1-yl)piperidin-2-yl)acetonitrile], the IC50 (on KRAS G12C; in experiment [1]) was at most 100 nM in each case.

With `COC/C=C/C(=O)N1CC[C@H](n2nnc3c(N4CC(C)(N(C)C)C4)nc4c(F)c(-c5c(C)c(F)cc6[nH]ncc56)c(C)cc4c32)C[C@H]1CC#N` [Example 203a, 2-((2S,4S)-4-(4-(3-(dimethylamino)-3-methylazetidin-1-yl)-6-fluoro-7-(6-fluoro-5-methyl-1H-indazol-4-yl)-8-methyl-1H-[1,2,3]triazolo[4,5-c]quinolin-1-yl)-1-((E)-4-methoxybut-2-enoyl)piperidin-2-yl)acetonitrile], the IC50 (on KRAS G12C; in experiment [1]) was at most 100 nM in each case.

Take `CC#CC(=O)N1CC[C@H](n2nnc3c(OC[C@@H]4CCCN4C)nc4c(F)c(-c5cccc(Cl)c5OC)c(CCC#N)cc4c32)C[C@H]1CC#N` [Example 204, 3-(1-((2S,4S)-1-(but-2-ynoyl)-2-(cyanomethyl)piperidin-4-yl)-7-(3-chloro-2-methoxyphenyl)-6-fluoro-4-(((S)-1-methylpyrrolidin-2-yl)methoxy)-1H-[1,2,3]triazolo[4,5-c]quinolin-8-yl)propanenitrile]: the IC50 (on KRAS G12C; in experiment [1]) was at most 100 nM each time.

Take `Cc1cccc(-c2c(C)cc3c(nc(N4CC(N(C)C)C4)c4nnn([C@H]5CCN(C(=O)/C=C/CF)[C@H](CC#N)C5)c43)c2F)c1C` [Example 206, 2-((2S,4S)-4-(4-(3-(dimethylamino)azetidin-1-yl)-7-(2,3-dimethylphenyl)-6-fluoro-8-methyl-1H-[1,2,3]triazolo[4,5-c]quinolin-1-yl)-1-((E)-4-fluorobut-2-enoyl)piperidin-2-yl)acetonitrile]: the IC50 (at KRAS G12C; in experiment [1]) was at most 100 nM each time.

For `CC#CC(=O)N1CC[C@H](n2nnc3c(N4CC(N(C)C)C4)nc4c(F)c(-c5cccc(C)c5C)c(C)cc4c32)C[C@H]1CC#N` [Example 207, 2-((2S,4S)-1-(but-2-ynoyl)-4-(4-(3-(dimethylamino)azetidin-1-yl)-7-(2,3-dimethylphenyl)-6-fluoro-8-methyl-1H-[1,2,3]triazolo[4,5-c]quinolin-1-yl)piperidin-2-yl)acetonitrile], the IC50 (on KRAS G12C; in experiment [1]) was at most 100 nM throughout.

For `C=CC(=O)N1CC[C@H](n2nnc3c(N4CC(C)(N(C)C)C4)nc4c(F)c(-c5cccc(C)c5C)c(C)cc4c32)C[C@H]1CC#N` [Example 208, 2-((2S,4S)-1-acryloyl-4-(4-(3-(dimethylamino)-3-methylazetidin-1-yl)-7-(2,3-dimethylphenyl)-6-fluoro-8-methyl-1H-[1,2,3]triazolo[4,5-c]quinolin-1-yl)piperidin-2-yl)acetonitrile], the IC50 (on KRAS G12C; in experiment [1]) was at most 100 nM throughout.

Turning to `Cc1cccc(-c2c(C)cc3c(nc(N4CC(C)(N(C)C)C4)c4nnn([C@H]5CCN(C(=O)/C=C/CF)[C@H](CC#N)C5)c43)c2F)c1C` [Example 209, 2-((2S,4S)-4-(4-(3-(dimethylamino)-3-methylazetidin-1-yl)-7-(2,3-dimethylphenyl)-6-fluoro-8-methyl-1H-[1,2,3]triazolo[4,5-c]quinolin-1-yl)-1-((E)-4-fluorobut-2-enoyl)piperidin-2-yl)acetonitrile], the IC50 (at KRAS G12C; in experiment [1]) was at most 100 nM each time.

`C=CC(=O)N1CCC(n2nnc3c(OC[C@@H]4CCCN4C)nc4c(F)c(-c5cccc(C)c5)c(Cl)cc4c32)C[C@H]1CC#N` (stereo partly drawn) [Example 210, 2-((2S)-1-acryloyl-4-(8-chloro-6-fluoro-4-(((S)-1-methylpyrrolidin-2-yl)methoxy)-7-(m-tolyl)-1H-[1,2,3]triazolo[4,5-c]quinolin-1-yl)piperidin-2-yl)acetonitrile]: the IC50 (on KRAS G12C; in experiment [1]) was at most 100 nM throughout.

With `C=CC(=O)N1CCC(n2nnc3c(N4CC(C)(N(C)C)C4)nc4c(F)c(-c5cccc(C)c5)c(Cl)cc4c32)C[C@H]1CC#N` (stereo partly drawn) [Example 211, 2-((2S)-1-acryloyl-4-(8-chloro-4-(3-(dimethylamino)-3-methylazetidin-1-yl)-6-fluoro-7-(m-tolyl)-1H-[1,2,3]triazolo[4,5-c]quinolin-1-yl)piperidin-2-yl)acetonitrile], the IC50 (at KRAS G12C; in experiment [1]) was at most 100 nM throughout.

Regarding `CN(C)C/C=C/C(=O)N1CCC(n2nnc3c(N4CC(C)(N(C)C)C4)nc4c(F)c(-c5cccc6cccc(Cl)c56)c(Cl)cc4c32)C[C@H]1CC#N` (stereo partly drawn) [Example 217, 2-((2S)-4-(8-chloro-7-(8-chloronaphthalen-1-yl)-4-(3-(dimethylamino)-3-methylazetidin-1-yl)-6-fluoro-1H-[1,2,3]triazolo[4,5-c]quinolin-1-yl)-1-((E)-4-(dimethylamino)but-2-enoyl)piperidin-2-yl)acetonitrile], the IC50 (at KRAS G12C; in experiment [1]) was at most 100 nM each time.

`CC#CC(=O)N1CCC(n2cnc3c(N4CC(C)(N(C)C)C4)nc4c(F)c(-c5cccc6cccc(Cl)c56)c(C)cc4c32)C[C@H]1CC#N` (stereo partly drawn) [Example 222, 2-((2S)-1-(but-2-ynoyl)-4-(7-(8-chloronaphthalen-1-yl)-4-(3-(dimethylamino)-3-methylazetidin-1-yl)-6-fluoro-8-methyl-1H-imidazo[4,5-c]quinolin-1-yl)piperidin-2-yl)acetonitrile]: the IC50 (at KRAS G12C; in experiment [1]) was at most 100 nM in each case.

As to `C=CC(=O)N1CCC(n2nnc3c(N4CC(C)(N(C)C)C4)nc4c(F)c(-c5cccc6cccc(Cl)c56)c(C)cc4c32)C[C@H]1CC#N` (stereo partly drawn) [Example 225, 2-((2S)-1-acryloyl-4-(7-(8-chloronaphthalen-1-yl)-4-(3-(dimethylamino)-3-methylazetidin-1-yl)-6-fluoro-8-methyl-1H-[1,2,3]triazolo[4,5-c]quinolin-1-yl)piperidin-2-yl)acetonitrile], the IC50 (at KRAS G12C; in experiment [1]) was at most 100 nM in each case.

With `CC#CC(=O)N1CC[C@H](n2nnc3c(N4CC(C)(N(C)C)C4)nc4c(F)c(-c5cccc(C)c5C)c(C)cc4c32)C[C@H]1CC#N` [Example 226, 2-((2S,4S)-1-(but-2-ynoyl)-4-(4-(3-(dimethylamino)-3-methylazetidin-1-yl)-7-(2,3-dimethylphenyl)-6-fluoro-8-methyl-1H-[1,2,3]triazolo[4,5-c]quinolin-1-yl)piperidin-2-yl)acetonitrile], the IC50 (at KRAS G12C; in experiment [1]) was at most 100 nM each time.

As to `C=CC(=O)N1CC[C@H](n2cnc3c(N4CC(N(C)C)C4)nc4c(F)c(-c5ccc(F)c6cccnc56)c(C(F)(F)F)cc4c32)C[C@H]1CC#N` [Example 229, 2-((2S,4S)-1-acryloyl-4-(4-(3-(dimethylamino)azetidin-1-yl)-6-fluoro-7-(5-fluoroquinolin-8-yl)-8-(trifluoromethyl)-1H-imidazo[4,5-c]quinolin-1-yl)piperidin-2-yl)acetonitrile], the IC50 (on KRAS G12C; in experiment [1]) was at most 100 nM in each case.

In the case of `Cc1c(Cl)cc2[nH]ncc2c1-c1c(CCC#N)cc2c(nc(N3CC(N(C)C)C3)c3nnn([C@H]4CCN(C(=O)/C=C/CN(C)C)[C@H](CC#N)C4)c32)c1F` [Example 232, 3-(7-(6-chloro-5-methyl-1H-indazol-4-yl)-1-((2S,4S)-2-(cyanomethyl)-1-((E)-4-(dimethylamino)but-2-enoyl)piperidin-4-yl)-4-(3-(dimethylamino)azetidin-1-yl)-6-fluoro-1H-[1,2,3]triazolo[4,5-c]quinolin-8-yl)propanenitrile], the IC50 (on KRAS G12C; in experiment [1]) was at most 100 nM each time.

As to `CC#CC(=O)N1CC[C@H](n2nnc3c(N4CC(C)(N(C)C)C4)nc4c(F)c(-c5ccc(F)c6cccnc56)c(C(F)(F)F)cc4c32)C[C@H]1CC#N` [Example 234, 2-((2S,4S)-1-(but-2-ynoyl)-4-(4-(3-(dimethylamino)-3-methylazetidin-1-yl)-6-fluoro-7-(5-fluoroquinolin-8-yl)-8-(trifluoromethyl)-1H-[1,2,3]triazolo[4,5-c]quinolin-1-yl)piperidin-2-yl)acetonitrile], the IC50 (at KRAS G12C; in experiment [1]) was at most 100 nM each time.

Take `CC#CC(=O)N1CC[C@H](n2nnc3c(N4CC(C)(N(C)C)C4)nc4c(F)c(-c5cccc(C)c5Cl)c(C(F)(F)F)cc4c32)C[C@H]1CC#N` [Example 236, 2-((2S,4S)-1-(but-2-ynoyl)-4-(7-(2-chloro-3-methylphenyl)-4-(3-(dimethylamino)-3-methylazetidin-1-yl)-6-fluoro-8-(trifluoromethyl)-1H-[1,2,3]triazolo[4,5-c]quinolin-1-yl)piperidin-2-yl)acetonitrile]: the IC50 (at KRAS G12C; in experiment [1]) was at most 100 nM throughout.

Take `Cc1cccc(-c2c(C(F)(F)F)cc3c(nc(N4CC(C)(N(C)C)C4)c4nnn([C@H]5CCN(C(=O)/C=C/CN(C)C)[C@H](CC#N)C5)c43)c2F)c1Cl` [Example 237, 2-((2S,4S)-4-(7-(2-chloro-3-methylphenyl)-4-(3-(dimethylamino)-3-methylazetidin-1-yl)-6-fluoro-8-(trifluoromethyl)-1H-[1,2,3]triazolo[4,5-c]quinolin-1-yl)-1-((E)-4-(dimethylamino)but-2-enoyl)piperidin-2-yl)acetonitrile]: the IC50 (on KRAS G12C; in experiment [1]) was at most 100 nM in each case.
